Patent US20250325498A1, “8-OHdG CONCENTRATION DECREASE ACCELERATOR, MALONDIALDEHYDE (MDA) CONCENTRATION DECREASE ACCELERATOR, ZIP4 CONCENTRATION INCREASE ACCELERATOR, OR SERUM ZINC CONCENTRATION INCREASE ACCELERATOR FOR JEJUNUM” (WATANABE OYSTER LABORATORY, CO., LTD., priority 2022, published 2025)

What was measured:
Type in all cases: in vivo, rat
MDA = assay: Jejunal MDA concentration in rats fed a low-zinc diet; settings: male Slc/SD rats, gavage on days 5 and 6, result in words, low-zinc diet group 6.67±0.47, standard diet group 4.53±0.26 mg/g of jejunum
Description: (§1) Male Slc/SD rats (4 weeks old) were used as experimental animals. (Grouping and Diet)
(§2) The rats were divided into the following groups, and the diets were as follows.
(§3) Low-zinc diet group (n=6): Free intake of a low-zinc diet (The concentration of zinc in the low-zinc diet: 3.9 mg zinc/kg diet) Note that the zinc concentration of the low-zinc diet is assumed to be 2.5 mg zinc/kg diet to 10 mg zinc/kg diet.)
(§4) From the start date of the regular breeding, the standard diet was fed to the standard diet group, and the low-zinc diet was fed to four groups including the low-zinc diet group, the low-zinc diet+precipitation fraction group, the low-zinc diet+supernatant fraction group, and the low-zinc diet+synthetic DHMBA group. They were fed by free intake. On days 5 and 6, 0.5% methyl cellulose solution was given to the standard diet group and the low-zinc diet group by gavage administration. The Pacific oyster extraction supernatant fraction was given to the low-zinc diet+supernatant fraction group by gavage administration. The Pacific oyster extraction precipitation fraction was given to the low-zinc diet+precipitation fraction group by gavage administration. The synthetic DHMBA was given to the low-zinc diet+synthetic DHMBA group by gavage administration. […]
(§5) The jejunal SOD concentration, MDA concentration, 8-OHdG concentration, ZIP4 concentration, and serum zinc concentration were measured. […]

8-OHdG = assay: Jejunal 8-OHdG concentration in rats fed a low-zinc diet; settings: male Slc/SD rats, low-zinc diet 7 days, gavage on days 5 and 6 (0.5 mL/100 g B.W.), organs harvested 24 hours after day 6 dose; low-zinc diet group 9.31±0.29, standard diet group 6.82±0.56
Description: as §1, §2, §3, §4, §5

ZIP4 = assay: Jejunal ZIP4 concentration in rats fed a low-zinc diet; settings: male Slc/SD rats, low-zinc diet 7 days, gavage on days 5 and 6, organs harvested 24 hours after day 6 dose; low-zinc diet group 4.38±0.33, standard diet group 8.89±0.71
Description: as §1, §2, §3, §4, §5

[1] = Serum zinc concentration in rats fed a low-zinc diet; settings: male Slc/SD rats, gavage on days 5 and 6, result in words
Description: as §1, §2, §3, §4, §5

For `COc1c(O)cc(CO)cc1O` [synthetic DHMBA, 3,5-dihydroxy-4-methoxybenzyl alcohol], the “jejunal MDA concentration compared with low-zinc diet group” value (MDA) was “decrease in MDA”, the “jejunal 8-OHdG concentration” value (8-OHdG) was 7.81±0.49 ng/g of jejunum and the “jejunal ZIP4 concentration” value (ZIP4) was 6.44 ± 0.76 pg/mg. The “serum zinc concentration compared with low-zinc diet group” value [1] was “significantly higher”.
